Reference: patent US20220378691A1, “Cosmetic composition comprising fermented product of Nuruk” (DAEBONG LS, LTD, priority 2021, published 2022)

Assay: Antioxidant effect: DPPH free radical scavenging test
Settings: treatment concentration 0.0005%; positive control
Procedure: The following assay test method was performed by applying the decrease in absorbance at 517 nm wavelength. […] After leaving the prepared sample at room temperature for 15 minutes, absorbance was measured at a wavelength of a 517 nm using a microplate reader. […] In addition, the positive control of this experimental example was prepared by mixing 1 ml of ascorbic acid (10 ppm) solution diluted in methanol and 1 ml of DPPH.

## O=C1O[C@H]([C@@H](O)CO)C(O)=C1O [Ascorbic acid, ascorbic acid]
  DPPF radical scavenging activity: 91.36 ± 0.13%
